ChEMBL document CHEMBL5038595, “Synthesis and Pharmacological Evaluation of Tetrahydro-γ-carboline Derivatives as Potent Anti-inflammatory Agents Targeting Cyclic GMP-AMP Synthase” (J Med Chem, 2021)

Columns and labels:
[1] = Cytotoxicity against human THP1-Dual cells assessed as reduction in cell viability incubated for 24 hrs by CCK-8 assay; format: toxicity, cell-based
Cyclic GMP-AMP synthase [2] = target: Cyclic GMP-AMP synthase (Homo sapiens, UniProt Q8N884); assay: Inhibition of human cGAS expressed in THP1-Dual cells transfected with HT-DNA assessed as suppression of lipofectamine 2000:ds-DNA complex induced activation of cGAS incubated for 1 hr by Quanti-luc reagent based assay; format: cell-based
[3] = Cytotoxicity against mouse RAW-Lucia ISG cells assessed as reduction in cell viability incubated for 24 hrs by CCK-8 assay; format: toxicity, cell-based
Cyclic GMP-AMP synthase [4] = target: Cyclic GMP-AMP synthase (Mus musculus, UniProt Q8C6L5); assay: Inhibition of mouse cGAS expressed in RAW-Lucia ISG transfected with HT-DNA assessed as suppression of lipofectamine 2000:ds-DNA complex induced activation of cGAS incubated for 1 hr by Quanti-luc reagent based assay; format: cell-based
Sequence of Cyclic GMP-AMP synthase (Mus musculus, UniProt Q8C6L5) (Q8C6L5 whole entry): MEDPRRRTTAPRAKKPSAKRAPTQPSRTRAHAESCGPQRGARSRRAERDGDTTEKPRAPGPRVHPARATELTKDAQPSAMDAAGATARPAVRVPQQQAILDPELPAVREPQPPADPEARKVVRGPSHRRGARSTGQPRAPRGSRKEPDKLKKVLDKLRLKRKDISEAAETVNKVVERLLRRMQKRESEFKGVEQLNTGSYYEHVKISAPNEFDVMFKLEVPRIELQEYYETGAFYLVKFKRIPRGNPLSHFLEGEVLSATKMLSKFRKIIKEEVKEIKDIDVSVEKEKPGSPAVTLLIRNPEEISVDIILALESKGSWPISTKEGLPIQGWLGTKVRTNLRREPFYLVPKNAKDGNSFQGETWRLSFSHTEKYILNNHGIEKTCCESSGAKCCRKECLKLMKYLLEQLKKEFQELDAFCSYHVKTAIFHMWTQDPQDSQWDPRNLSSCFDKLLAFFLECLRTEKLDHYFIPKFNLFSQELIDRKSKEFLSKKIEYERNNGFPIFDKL

Sequence of Cyclic GMP-AMP synthase (Homo sapiens, UniProt Q8N884) (Q8N884 whole entry): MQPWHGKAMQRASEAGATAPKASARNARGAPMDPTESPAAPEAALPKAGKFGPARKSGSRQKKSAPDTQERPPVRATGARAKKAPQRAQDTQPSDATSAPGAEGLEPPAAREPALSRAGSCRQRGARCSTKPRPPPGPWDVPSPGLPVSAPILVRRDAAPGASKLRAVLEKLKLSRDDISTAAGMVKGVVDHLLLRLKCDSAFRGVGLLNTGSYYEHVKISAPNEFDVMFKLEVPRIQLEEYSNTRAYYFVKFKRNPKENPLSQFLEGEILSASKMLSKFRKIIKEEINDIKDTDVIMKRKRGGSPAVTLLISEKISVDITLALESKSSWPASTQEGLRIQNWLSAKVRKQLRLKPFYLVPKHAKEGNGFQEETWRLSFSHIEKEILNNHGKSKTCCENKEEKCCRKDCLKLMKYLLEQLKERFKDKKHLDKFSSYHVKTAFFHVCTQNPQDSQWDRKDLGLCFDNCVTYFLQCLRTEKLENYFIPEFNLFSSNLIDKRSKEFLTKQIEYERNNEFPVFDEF

IC50 (Cyclic GMP-AMP synthase [2]) | IC50 (Cyclic GMP-AMP synthase [4]) | SMILES | CC50 at 24 h [1] | CC50 at 24 h [3]
11 µM |  | Cn1ccc(-c2cc(Cl)c(Cl)c3[nH]c4c(c23)CN(C(=O)CNC(=O)[C@@H](N)O)CC4)n1 | 27.7 µM | 
> 50 µM |  | Cn1ccc(-c2cc(Cl)c(Cl)c3[nH]c4c(c23)CN(C(=O)C2CC(O)C2)CC4)n1 (stereo not given) | > 50 µM | 
8.21 µM |  | Cn1ccc(-c2cc(Cl)c(Cl)c3[nH]c4c(c23)CN(C(=O)CNC(=O)C(C)(C)NC(=O)OC(C)(C)C)CC4)n1 | 49.2 µM | 
39.4 µM |  | CCOC(=O)c1ccc(NC23CN(C(=O)CO)CCC2=Nc2c3ccc(Cl)c2Cl)cc1 (stereo not given) | 52.5 µM | 
10.2 µM |  | Cn1ccc(-c2cc(Cl)c(Cl)c3[nH]c4c(c23)CN(C(=O)CNC(=O)[C@@H](N)Cc2cc[nH]n2)CC4)n1 | > 50 µM | 
> 50 µM |  | Cn1ccc(-c2cc(Cl)c(Cl)c3[nH]c4c(c23)CN(C(=O)CNC(=O)C2=C[C@H](O)[C@H](O)[C@@H](O)C2)CC4)n1 | > 50 µM | 
21 µM |  | CN(C)CC(=O)N1CCc2[nH]c3c(Cl)c(Cl)cc(-c4ccn(C)n4)c3c2C1 | 30.4 µM | 
> 50 µM |  | O=C(CO)N1CCC2=Nc3c(ccc(Cl)c3Cl)C2(Nc2cc(F)cc(F)c2)C1 (stereo not given) | > 50 µM | 

The remaining lines, values behind:

SMILES | IC50 (Cyclic GMP-AMP synthase [2]) | IC50 (Cyclic GMP-AMP synthase [4]) | CC50 at 24 h [1] | CC50 at 24 h [3]
O=C(CO)N1C[C@H]2[C@H]3O[C@]4(Nc5ccccc53)c3ccc(Cl)c(Cl)c3N[C@]24C1 (racemic) | > 50 µM |  | > 50 µM | 
Cn1ccc(-c2cc(Cl)c(Cl)c3[nH]c4c(c23)CN(C(=O)C2CC(OC(F)F)C2)CC4)n1 (stereo not given) | 20.3 µM |  | 20.2 µM | 
O=C(CO)N1C[C@H]2[C@H]3O[C@]4(Nc5ccc(Cl)cc53)c3ccc(Cl)c(Cl)c3N[C@]24C1 (racemic) | 38.2 µM | 37.6 µM | > 50 µM | > 50 µM
O=C(CO)N1CCC2=Nc3c(ccc(Cl)c3Cl)C2(c2c[nH]c3cc(Cl)ccc23)C1 (stereo not given) | 8.59 µM | 22 µM | 24.4 µM | 10 µM
CC(=O)OCC(=O)N1CCC2=Nc3c(ccc(Cl)c3Cl)C2(Nc2cc(C(F)(F)F)cc(C(F)(F)F)c2)C1 (stereo not given) | 3.23 µM | 7.94 µM | 11 µM | 7.88 µM
CC(=O)OCC(=O)N1CCC2=Nc3c(ccc(Cl)c3Cl)C2(Nc2ccccc2C=O)C1 (stereo not given) | 9.59 µM |  | > 50 µM | 
Cn1ccc(-c2cc(Cl)c(Cl)c3[nH]c4c(c23)CN(C(=O)[C@@H]2CCCN2)CC4)n1 | 22.2 µM |  | 49.1 µM | 
Cn1ccc(-c2cc(Cl)c(Cl)c3[nH]c4c(c23)CN(C(=O)CNC(=O)c2cccc(-c3noc(C(F)(F)F)n3)c2)CC4)n1 | 10 µM | 7.62 µM | > 50 µM | > 50 µM
O=C(CO)N1CCC2=Nc3c(ccc(Cl)c3Cl)C2(c2c[nH]c3cc(F)cc(F)c23)C1 (stereo not given) | 12.9 µM |  | 10.4 µM | 
Cn1ccc(-c2cc(Cl)c(Cl)c3[nH]c4c(c23)CN(C(=O)C2(N)COC2)CC4)n1 | > 50 µM |  | > 50 µM | 
O=C(CO)N1CC=C2Nc3c(ccc(Cl)c3Cl)C2(Cl)C1 (stereo not given) | > 50 µM |  | > 50 µM | 
Cn1ccc(-c2cc(Cl)c(Cl)c3[nH]c4c(c23)CN(C(=O)CN2CCOCC2)CC4)n1 | > 50 µM |  | > 50 µM | 
O=C(CO)N1CCC2=Nc3c(ccc(Cl)c3Cl)C2(c2c[nH]c3cc(F)ccc23)C1 (stereo not given) | 14.1 µM |  | 32.1 µM | 
Cn1ccc(-c2cc(Cl)c(Cl)c3[nH]c4c(c23)CN(C(=O)CNC(=O)C2(N)CC2)CC4)n1 | 13.5 µM |  | > 50 µM | 
CC(=O)NCC(=O)N1CCc2[nH]c3c(Cl)c(Cl)cc(-c4ccn(C)n4)c3c2C1 | 37.7 µM |  | > 50 µM | 
COc1ccc2c(C34CN(C(=O)CO)CCC3=Nc3c4ccc(Cl)c3Cl)c[nH]c2c1 (stereo not given) | 11.3 µM |  | > 50 µM | 
Cn1ccc(-c2cc(Cl)c(Cl)c3[nH]c4c(c23)CN(C(=O)CNC(=O)CN2CCNCC2)CC4)n1 | 7.86 µM |  | 37.7 µM | 
Cn1ccc(-c2cc(Cl)c(Cl)c3[nH]c4c(c23)CN(C(=O)CNC(=O)C(C)(C)N)CC4)n1 | 10.5 µM |  | 12.3 µM | 
